Laboratory results published in ChEMBL document CHEMBL3352731, “Evaluation of gambierol and its analogs for their inhibition of human Kv1.2 and cytotoxicity” (Bioorg Med Chem Lett, 2015).
pIC50: −log10 of the molar value.

Assays:
[1] = molecular target: Potassium voltage-gated channel subfamily A member 2 (Homo sapiens) (UniProt P16389); test: Inhibition of human Kv 1.2 stably expressed in CHO cells by whole cell patch clamp method; type: cell-based
[2] = test system: CHO; test: Induction of leak current in wild-type CHO cells by electrophysiology method; type: cell-based, Cricetulus griseus; settings: chinese hamster
[3] = test system: CHO; test: Cytotoxicity against wild-type CHO cells assessed as growth inhibition after 72 hrs by WST-8 assay; type: cell-based; settings: Cricetulus griseus
[4] = test system: CHO; test: Cytotoxicity against CHO cells transfected with human Kv 1.2 assessed as growth inhibition after 72 hrs by WST-8 assay; type: cell-based; settings: Cricetulus griseus

Chain of Potassium voltage-gated channel subfamily A member 2 (Homo sapiens) (P16389 whole entry): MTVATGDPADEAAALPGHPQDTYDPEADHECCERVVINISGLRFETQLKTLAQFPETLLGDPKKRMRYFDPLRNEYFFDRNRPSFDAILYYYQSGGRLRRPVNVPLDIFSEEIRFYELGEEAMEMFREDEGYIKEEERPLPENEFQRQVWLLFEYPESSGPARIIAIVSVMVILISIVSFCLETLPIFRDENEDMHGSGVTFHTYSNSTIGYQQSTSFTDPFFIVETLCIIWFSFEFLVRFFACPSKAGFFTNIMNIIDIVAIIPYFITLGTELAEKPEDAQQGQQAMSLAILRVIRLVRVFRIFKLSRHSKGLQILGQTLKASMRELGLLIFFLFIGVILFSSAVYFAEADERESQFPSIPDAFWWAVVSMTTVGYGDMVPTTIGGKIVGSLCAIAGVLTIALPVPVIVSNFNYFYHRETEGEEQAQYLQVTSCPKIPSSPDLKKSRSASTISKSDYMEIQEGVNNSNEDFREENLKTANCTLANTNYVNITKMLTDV

Row | Structure (SMILES) | inhibition [1] | Activity [2] | pIC50 [3] | pIC50 [4]
1 | C=CC/C=C\C=C/[C@H]1O[C@H]2C[C@H]3O[C@H]4CC[C@H]5O[C@H]6C[C@@]7(C)O[C@@]8(C)[C@@H](O)C[C@H](CCCO)O[C@@H]8C[C@@H]7O[C@@H]6C[C@@H]5O[C@]4(C)C[C@]3(C)O[C@@H]2C=C[C@]1(C)O | Dose-dependent effect | Dose-dependent effect | 4.11 | 4.02
2 | C=CC/C=C\C=C/[C@H]1O[C@H]2C[C@H]3O[C@H]4CCCCO[C@]4(C)C[C@]3(C)O[C@@H]2C=C[C@]1(C)O |  |  | < 4.00 | < 4.00
3 | C=CC/C=C\C=C/[C@H]1O[C@H]2C[C@H]3O[C@H]4CC[C@H]5O[C@H]6C[C@@]7(C)OCCC[C@@H]7O[C@@H]6C[C@@H]5O[C@]4(C)C[C@]3(C)O[C@@H]2C=C[C@]1(C)O |  |  | 5.22 | 5.19
